US20030175319A1, “Method for controlling termite” (SUMITOMO CHEMICAL COMPANY, LIMITED, priority 2002, published 2003)

Legend:
[1] = test system: Formosan subterranean termites (Coptotermes formosanus); test: Test Example 1: mortality of termites released in a plastic cup with the sheet formulation; format: in vivo; conditions: for Mortality (%): 2.5 g sheet formulation, 100 termites
Procedure: The sheet formulation obtained in Formulation example 1 or 2 (2.5 g) was put in a plastic cup (8.5 cm in diameter). The plastic cup was set inside a large cup having wet cotton for supplying moisture and 100 Formosan subterranean termites (Coptotermes formosanus) were released in the plastic cup. After 2, 4 and 8 weeks, the mortality of the termites was observed. Further, the same sheet formulation as Formulation example 2 except that hexaflumuron was used in place of bistrifluron was tested for reference.

[2] = test system: Formosan subterranean termites; test: Test Example 2: field test, sheet formulation buried at tree stumps damaged by termites; format: in vivo, Coptotermes formosanus; conditions: conclusion from Table 2
Excerpt: In a place termites inhabit, two tree stumps (A and B) damaged by Formosan subterranean termites were found. The distance between A and B is about 500 m. Two wooden blocks (φ75 mm×78 mm) were buried near A and B, respectively.
After all the wooden blocks were damaged by the termites, each of about 60 g of the sheet formulation obtained in Formulation example 2 was buried in place of the damaged wooden blocks at A. On the other hand, the same sheet formulation as Formulation example 2 except that hexaflumuron was used in place of bistrifluron was used at B. Further, two of the sheet formulation were added at A and B respectively, after two weeks. […]
Soldiers are usually in their colony. At emergency, soldiers are observed.

| SMILES | Mortality (%) ([1]; after 2 weeks) | Mortality (%) ([1]; after 4 weeks) | Mortality (%) ([1]; after 8 weeks) | rapidity of efficacy compared with hexaflumuron ([1]; conclusion from Table 1) | rapidity of efficacy compared with hexaflumuron [2] |
| --- | --- | --- | --- | --- | --- |
| O=C(NC(=O)c1c(F)cccc1F)Nc1cc(Cl)c(OC(F)(F)C(F)F)c(Cl)c1 [Hexaflumuron, 1-[3,5-dichloro-4-(1,1,2,2-tetrafluoroethoxy)phenyl]-3-(2,6-difluorobenzoyl)urea] | 5 | 34 | 100 |  |  |
| O=C(NC(=O)c1c(F)cccc1F)Nc1cc(C(F)(F)F)cc(C(F)(F)F)c1Cl [bistrifluron, N-[2-chloro-3,5-bis(trifluoromethyl)phenyl]-N′-(2,6-difluorobenzoyl)urea] |  |  |  | more rapid efficacy than hexaflumuron | more rapid efficacy than hexaflumuron |
